{"source": "patent US9926267B2", "about": "“Covalent inhibitors of K-Ras G12C” (Araxes Pharma LLC, priority 2013, dated 2018)", "data": [{"biological_target": "T1, KRAS G12C 1-169, his-tagged protein, GDP-loaded (Homo sapiens, UniProt P01116, G12C)", "T1 construct": "KRAS G12C 1-169, his-tagged protein, GDP-loaded", "T1 sequence (P01116 1-169 isoform P01116-2 G12C)": "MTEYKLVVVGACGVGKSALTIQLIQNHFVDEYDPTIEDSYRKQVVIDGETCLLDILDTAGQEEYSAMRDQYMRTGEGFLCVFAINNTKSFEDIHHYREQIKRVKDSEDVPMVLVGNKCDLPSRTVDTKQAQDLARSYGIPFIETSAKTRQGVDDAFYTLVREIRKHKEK", "experiment": "Biochemical assay: covalent binding to KRAS G12C, measured by mass spectrometry", "settings": "Binding activity determined at 2 hrs; Table 7b", "experimental": "(§1) Test compounds were prepared as 10 mM stock solutions in DMSO (Fisher cat#BP-231-100). KRAS G12C 1-169, his-tagged protein, GDP-loaded was diluted to 2 μm in buffer (20 mM Hepes, 150 mM NaCl, 1 mM MgCl2). Compounds were tested for activity as follows:\n(§2) Compounds were diluted to 50× final test concentration in DMSO in 96-well storage plates. Compound stock solutions were vortexed before use and observed carefully for any sign of precipitation. Dilutions were as follow: • For 100 μM final compound concentration, compounds were diluted to 5000 μM (5 μl 10 mM compound stock+5 μl DMSO and mixed well by pipetting. • For 30 μM final compound concentration, compounds were diluted to 1500 μM (3 μl 10 mM compound stock+17 μl DMSO) and mixed well by pipetting. • For […] final compound concentration, compounds were diluted to 500 μM (2 μl 10 mM compound stock+38 μl DMSO) and mixed well by pipetting. 49 μl of the stock protein solution was added to each well of a 96-well PCR plate (Fisher cat#1423027). 1 μl of the diluted 50× compounds were added to appropriate wells in the PCR plate using 12-channel pipettor. Reactions were mixed carefully and thoroughly by pipetting up/down with a 200 μl multi-channel pipettor. The plate was sealed well with aluminum plate seal, and stored in a drawer at room temperature for 2 hrs or 24 hrs. 5 μl of 2% formic acid (Fisher cat#A117) in DI H2O was then added to each well followed by mixing with a pipette. The plate was then resealed with aluminum seal and stored on dry ice until analyzed as described below.\n(§3) The above described assays were analyzed by mass spectrometry according to the following procedure:\n(§4) The MS instrument is set to positive polarity, 2 GHz resolution, and low mass (1700) mode and allowed to equilibrate for 30 minutes. The instrument is then calibrated, switched to acquisition mode and the appropriate method loaded.\n(§5) After another 30 minute equilibration time, a blank batch (i.e., buffer) is run to ensure equipment is operating properly. The samples are thawed at 37° C. for 10 minutes, briefly centrifuged, and transfer to the bench top. Wells A1 and H12 are spiked with 1 uL 500 uM internal standard peptide, and the plates centrifuged at 2000×g for 5 minutes. The method is then run and masses of each individual well recorded.\n(§6) The masses (for which integration data is desired) for each well are pasted into the platemap and exported from the analysis. Masses for the internal standards are exported as well. The data at 50 ppm is extracted for the +19 charge state, and identity of well A1 is assigned using the internal standard spike and integrated. Peak data is exported as a TOF list and the above steps are repeated individually, for the +20, 21, 22, 23, 24, and charge states.", "values": [{"smiles": "C=CC(=O)N1CC(N2CCN(C(=O)NCc3cc(Br)c(Cl)cc3O)CC2)C1", "note": "[Compound V-66, 4-(1-acryloylazetidin-3-yl)-N-(5-bromo-4-chloro-2-hydroxybenzyl) piperazine-1-carboxamide]", "Binding %": "+ (+ indicates binding activity from 5% to 20%)"}]}, {"biological_target": "T1, KRAS G12C 1-169, his-tagged protein, GDP-loaded", "experiment": "Biochemical assay: covalent binding to KRAS G12C, measured by mass spectrometry", "settings": "Binding activity determined at 2 hrs; Table 8b", "experimental": "as §1, §2, §3, §4, §5, §6", "values": [{"smiles": "C=CC(=O)N1CCN(C(=O)c2cc(Cl)c(-c3cccc(Cl)c3)cc2O)CC1", "note": "[VI-43, 1-(4-(2,3′-dichloro-5-hydroxybiphenyl-carbonyl)piperazin-1-yl)prop-2-en-1-one]", "Binding %": "+ (+ indicates binding activity from 5% to 20%)"}, {"smiles": "C=CC(=O)N1CCN(C(=O)c2cc(Cl)c(-c3ccccc3Cl)cc2O)CC1", "note": "[VI-41, 1-(4-(2,2′-dichloro-5-hydroxybiphenyl-carbonyl)piperazin-1-yl)prop-2-en-1-one]", "Binding %": "+ (+ indicates binding activity from 5% to 20%)"}, {"smiles": "C=CC(=O)N1CCN(C(=O)c2cc(-c3ccc(Cl)cc3)c(Cl)cc2O)CC1C#N", "note": "(centres unmarked) [VI-37, 1-Acryloyl-4-(4′,6-dichloro-4-hydroxy-[1,1′-biphenyl]-3-carbonyl)piperazine-2-carbonitrile]", "Binding %": "++ (++ indicates binding activity greater than 20%)"}]}, {"biological_target": "T1, KRAS G12C 1-169, his-tagged protein, GDP-loaded", "experiment": "Biochemical assay: covalent binding to KRAS G12C, measured by mass spectrometry", "settings": "Binding activity determined at 24 hrs; Table 7a", "experimental": "as §1, §2, §3, §4, §5, §6", "values": [{"smiles": "C=CC(=O)N1CCC(N2CCN(C(=O)CNc3cc(Cl)c(C)cc3O)CC2)C1", "note": "(centres unmarked) [Compound V-8, 1-(3-(4-(2-(5-chloro-2-hydroxy-4-methylphenyl-amino)acetyl)piperazin-1-yl)pyrrolidin-1-yl)prop-2-en-1-one]", "Binding %": "++ (++ indicates binding activity greater than 15% and up to 25%)"}, {"smiles": "C=CC(=O)N1CCN(C2CCN(C(=O)CNc3cc(Cl)c(Cl)cc3O)C2)CC1", "note": "(centres unmarked) [Compound V-4, 1-(4-(1-(2-(4,5-dichloro-2-hydroxyphenyl-amino)acetyl)pyrrolidin-3-yl)piperazin-1-yl)prop-2-en-1-one]", "Binding %": "+++ (+++ indicates binding activity greater than 25% and up to 50%)"}]}, {"biological_target": "T1, KRAS G12C 1-169, his-tagged protein, GDP-loaded", "experiment": "Biochemical assay: covalent binding to KRAS G12C, measured by mass spectrometry", "settings": "Binding activity determined at 24 hrs; Table 8a", "experimental": "as §1, §2, §3, §4, §5, §6", "values": [{"smiles": "C=CC(=O)N1CCN(C(=O)c2cn(-c3cc(Cl)ccc3Cl)c(=O)cc2O)CC1", "note": "[VI-28, 5-(4-acryloylpiperazine-1-carbonyl)-1-(2,5-dichlorophenyl)-4-hydroxypyridin-2(1H)-one]", "Binding %": "++ (++ indicates binding activity greater than 10% and up to 20%)"}, {"smiles": "C=CC(=O)N1CCN(C(=O)c2cc(Cl)c(Cl)cc2O)CC1", "note": "[VI-8, 1-(4-(4,5-dichloro-2-hydroxybenzoyl)piperazin-1-yl)prop-2-en-1-one]", "Binding %": "+ (+ indicates binding activity from 5% to 10%)"}, {"smiles": "C=CC(=O)N1CCN(C(=O)c2cc(-c3ccccc3Cl)c(C)[nH]2)CC1", "note": "[VI-23, 1-(4-(4-(2-chlorophenyl)-5-methyl-1H-pyrrole-2-carbonyl)piperazin-1-yl)prop-2-en-1-one]", "Binding %": "+++ (+++ indicates binding activity greater than 20% and up to 30%)"}, {"smiles": "C=CS(=O)(=O)NC1CCN(C(=O)c2ccc(Cl)c(Cl)c2)CC1", "note": "[VI-33, N-(1-(3,4-dichlorobenzoyl)piperidin-4-yl)ethenesulfonamide]", "Binding %": "+ (+ indicates binding activity from 5% to 10%)"}, {"smiles": "C=CC(=O)N1CCN(C(=O)c2cc(-c3ccccc3Cl)n[nH]2)CC1", "note": "[VI-11, 1-(4-(3-(2-chlorophenyl)-1H-pyrazole-5-carbonyl)piperazin-1-yl)prop-2-en-1-one]", "Binding %": "+ (+ indicates binding activity from 5% to 10%)"}, {"smiles": "C=CC(=O)N1CCN(C(=O)c2cc(O)c(Cl)c(-c3ccccc3Cl)c2)CC1", "note": "[VI-27]", "Binding %": "+++ (+++ indicates binding activity greater than 20% and up to 30%)"}, {"smiles": "C=CS(=O)(=O)N[C@H]1CCCN(C(=O)c2ccc(Cl)c(Cl)c2)C1", "note": "[VI-35, (S)-N-(1-(3,4-dichlorobenzoyl)piperidin-3-yl)ethenesulfonamide]", "Binding %": "++ (++ indicates binding activity greater than 10% and up to 20%)"}, {"smiles": "C=CC(=O)NC1CN(C(=O)c2cc(-c3ccccc3Cl)[nH]n2)C1", "note": "[VI-15, N-(1-(3-(2-chlorophenyl)-1H-pyrazole-5-carbonyl)azetidin-3-yl)acrylamide]", "Binding %": "+ (+ indicates binding activity from 5% to 10%)"}, {"smiles": "C=CC(=O)N1CC(NC(=O)c2cc(-c3ccccc3Cl)[nH]n2)C1", "note": "[VI-14, N-(1-acryloylazetidin-3-yl)-3-(2-chlorophenyl)-1H-pyrazole-5-carboxamide]", "Binding %": "+ (+ indicates binding activity from 5% to 10%)"}, {"smiles": "C=CC(=O)N1CCN(C(=O)c2cc(-c3ccccc3Cl)c(Cl)cc2O)CC1", "note": "[VI-3, 1-(4-(2′,6-Dichloro-4-hydroxy-[1,1′-biphenyl]-3-carbonyl)piperazin-1-yl)prop-2-en-1-one]", "Binding %": "++++ (++++ indicates binding activity greater than 30%)"}, {"smiles": "CN(C)C/C=C/C(=O)N1CCN(C(=O)c2cc(-c3ccccc3Cl)c(Cl)cc2O)CC1", "note": "[VI-24, (E)-1-(4-(2′,6-dichloro-4-hydroxy-[1,1′-biphenyl]-3-carbonyl)piperazin-1-yl)-4-(dimethylamino)but-2-en-1-one]", "Binding %": "++++ (++++ indicates binding activity greater than 30%)"}, {"smiles": "C=CC(=O)N1CCN(C(=O)c2csc(-c3ccccc3Cl)n2)CC1", "note": "[VI-18, 1-(4-(2-(2-chlorophenyl)thiazole-4-carbonyl)piperazin-1-yl)prop-2-en-1-one]", "Binding %": "+ (+ indicates binding activity from 5% to 10%)"}, {"smiles": "C=CC(=O)N1CCN(C(=O)c2cc(-c3cc(Cl)ccc3Cl)c[nH]2)CC1", "note": "[VI-31, 1-(4-(4-(2,5-dichlorophenyl)-1H-pyrrole-2-carbonyl)piperazin-1-yl)prop-2-en-1-one]", "Binding %": "+ (+ indicates binding activity from 5% to 10%)"}, {"smiles": "C=CC(=O)N1CCN(C(=O)c2nc(-c3ccccc3Cl)cs2)CC1", "note": "[VI-19, 1-(4-(4-(2-chlorophenyl)thiazole-2-carbonyl)piperazin-1-yl)prop-2-en-1-one]", "Binding %": "+ (+ indicates binding activity from 5% to 10%)"}, {"smiles": "C=CC(=O)N1CCN(C(=O)c2cc(-c3ccccc3Cl)c[nH]2)CC1", "note": "[VI-21, 1-(4-(4-(2-chlorophenyl)-1H-pyrrole-2-carbonyl)piperazin-1-yl)prop-2-en-1-one]", "Binding %": "++ (++ indicates binding activity greater than 10% and up to 20%)"}, {"smiles": "C=CC(=O)N1CCN(C(=O)c2nc(-c3ccccc3Cl)sc2Cl)CC1", "note": "[VI-20, 1-(4-(5-chloro-2-(2-chlorophenyl)thiazole-4-carbonyl)piperazin-1-yl)prop-2-en-1-one]", "Binding %": "+ (+ indicates binding activity from 5% to 10%)"}, {"smiles": "C=CC(=O)N1CCN(C(=O)c2cc(-c3ccccc3Cl)ccc2O)CC1", "note": "[VI-26, 1-(4-(2′-chloro-4-hydroxybiphenyl-carbonyl)piperazin-1-yl)prop-2-en-1-one]", "Binding %": "++ (++ indicates binding activity greater than 10% and up to 20%)"}, {"smiles": "C=CC(=O)N1CCN(C(=O)c2cc(-c3ccccc3Cl)c(Cl)[nH]2)CC1", "note": "[VI-30, 1-(4-(5-chloro-4-(2-chlorophenyl)-1H-pyrrole-2-carbonyl)piperazin-1-yl)prop-2-en-1-one]", "Binding %": "++ (++ indicates binding activity greater than 10% and up to 20%)"}, {"smiles": "C=CC(=O)N1CCN(C(=O)c2cc(-c3cc(Cl)ccc3Cl)c(Cl)cc2O)CC1", "note": "[VI-17, 1-(4-(2′,5′,6-trichloro-4-hydroxybiphenyl-carbonyl)piperazin-1-yl)prop-2-en-1-one]", "Binding %": "++++ (++++ indicates binding activity greater than 30%)"}, {"smiles": "C=CC(=O)NC1CN(C(=O)c2cc(-c3ccccc3Cl)c(Cl)cc2O)C1", "note": "[VI-13, N-(1-(2′,6-dichloro-4-hydroxybiphenyl-carbonyl)azetidin-3-yl)acrylamide]", "Binding %": "+ (+ indicates binding activity from 5% to 10%)"}]}]}
